Measured values from paper PMC6409085, “Three odorant-binding proteins are involved in the behavioral response of Sogatella furcifera to rice plant volatiles” (PeerJ, 2019).
Values joined by “and” are separate entries in the source; they are usually repeats but may differ in a detail not shown here. Equal entries are not always repeated.

Assays:
SfurOBP2 = SfurOBP2 (Sogatella furcifera, UniProt V5T759); assay: biochemical; format: binding
Method in brief: (§1)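 In 50 mM Tris-HCl pH 7.4, odorants displace 1-NPN (2.0 µM) from 2.0 µM protein. Emission at 390–490 nm under 337 nm excitation is measured 2 min after competitor addition, in triplicate. Ki is obtained from IC50 and the 1-NPN dissociation constant.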

SfurOBP1 = SfurOBP1 (Sogatella furcifera, UniProt V5T8N5); assay: biochemical; format: binding; conditions: for Fluorescence competitive binding assay, fluorescence intensity: OBP1, three replicate columns
Method in brief: as §1

SfurOBP3 = SfurOBP3 (Sogatella furcifera, UniProt V5T818); assay: biochemical; format: binding; conditions: for Fluorescence competitive binding assay, fluorescence intensity: OBP3, three replicate columns;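 as to Fluorescence competitive binding assay, fluorescence intensity: competitor odorant at 2 to 20 µM with protein and 1-NPN both 2.0 µM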
Method in brief: as §1

SfurOBP11 = SfurOBP11 (Sogatella furcifera, UniProt V5T6E3); assay: biochemical; format: binding
Method in brief: as §1

S. furcifera adults = assay: Y-tube olfactometer behavioral trials; format: in vivo, Sogatella furcifera; conditions: odorant 50 µL/L vs hexane; adults
Method in brief: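 Single S. furcifera adults (2 days post-emergence, starved 0.5 h) chose between odorant (100 µL of 50 µL/L on filter paper) and hexane control in a glass Y-tube, charcoal-filtered humidified air 300 mL/min per arm, 25 ± 1 °C, 50% RH. Choice scored if insect passed half an arm and stayed >1 min within 10 min; 45 insects per compound, chi-squared test.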
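For Fluorescence competitive binding assay, fluorescence intensity in this document: competitor odorant at 2 to 20 µM with protein and 1-NPN both 2.0 µM.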

Sequence of SfurOBP1 (V5T8N5 entry or part of it): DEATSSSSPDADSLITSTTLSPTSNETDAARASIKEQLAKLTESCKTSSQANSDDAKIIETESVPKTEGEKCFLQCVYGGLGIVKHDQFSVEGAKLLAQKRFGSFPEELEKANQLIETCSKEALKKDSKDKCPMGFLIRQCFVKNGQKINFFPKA
Sequence of SfurOBP2 (V5T759 entry or part of it): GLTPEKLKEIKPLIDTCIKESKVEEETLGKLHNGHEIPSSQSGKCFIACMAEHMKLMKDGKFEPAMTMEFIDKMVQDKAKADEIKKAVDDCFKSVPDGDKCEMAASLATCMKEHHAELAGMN
Sequence of SfurOBP11 (V5T6E3 entry or part of it): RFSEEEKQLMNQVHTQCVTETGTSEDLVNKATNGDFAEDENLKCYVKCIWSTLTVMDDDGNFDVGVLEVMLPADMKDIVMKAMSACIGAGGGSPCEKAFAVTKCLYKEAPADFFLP
Sequence of SfurOBP3 (V5T818 entry or part of it): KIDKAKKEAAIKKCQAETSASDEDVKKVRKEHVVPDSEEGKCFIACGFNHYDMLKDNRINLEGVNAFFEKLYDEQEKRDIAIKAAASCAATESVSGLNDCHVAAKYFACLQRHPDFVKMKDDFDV

COC(=O)c1ccccc1 [benzoic acid methylester]
IC50 (SfurOBP2): > 20 µM | Fluorescence competitive binding assay, OBP2 (raw fluorescence reading) (SfurOBP2; ligand concentration 2 (unit not given), replicate column 1 of 3): 20302 | Fluorescence competitive binding assay, OBP2 (raw fluorescence reading) (SfurOBP2; ligand concentration 2 (unit not given), replicate column 2 of 3): 19349 | Fluorescence competitive binding assay, OBP2 (raw fluorescence reading) (SfurOBP2; ligand concentration 2 (unit not given), replicate column 3 of 3): 19856 | Fluorescence competitive binding assay, OBP2 (raw fluorescence reading) (SfurOBP2; ligand concentration 4 (unit not given), replicate column 1 of 3): 20922 | Fluorescence competitive binding assay, OBP2 (raw fluorescence reading) (SfurOBP2; ligand concentration 4 (unit not given), replicate column 2 of 3): 22649 | Fluorescence competitive binding assay, OBP2 (raw fluorescence reading) (SfurOBP2; ligand concentration 4 (unit not given), replicate column 3 of 3): 23660 | Fluorescence competitive binding assay, OBP2 (raw fluorescence reading) (SfurOBP2; ligand concentration 6 (unit not given), replicate column 1 of 3): 19982 | Fluorescence competitive binding assay, OBP2 (raw fluorescence reading) (SfurOBP2; ligand concentration 6 (unit not given), replicate column 2 of 3): 19598 | Fluorescence competitive binding assay, OBP2 (raw fluorescence reading) (SfurOBP2; ligand concentration 6 (unit not given), replicate column 3 of 3): 20363 | Fluorescence competitive binding assay, OBP2 (raw fluorescence reading) (SfurOBP2; ligand concentration 8 (unit not given), replicate column 1 of 3): 18016 | Fluorescence competitive binding assay, OBP2 (raw fluorescence reading) (SfurOBP2; ligand concentration 8 (unit not given), replicate column 2 of 3): 17876 | Fluorescence competitive binding assay, OBP2 (raw fluorescence reading) (SfurOBP2; ligand concentration 8 (unit not given), replicate column 3 of 3): 18155 | Fluorescence competitive binding assay, OBP2 (raw fluorescence reading) (SfurOBP2; ligand concentration 10 (unit not given), replicate column 1 of 3): 17866 | Fluorescence competitive binding assay, OBP2 (raw fluorescence reading) (SfurOBP2; ligand concentration 10 (unit not given), replicate column 2 of 3): 16967 | Fluorescence competitive binding assay, OBP2 (raw fluorescence reading) (SfurOBP2; ligand concentration 10 (unit not given), replicate column 3 of 3): 17417 | Fluorescence competitive binding assay, OBP2 (raw fluorescence reading) (SfurOBP2; ligand concentration 12 (unit not given), replicate column 1 of 3): 14659 | Fluorescence competitive binding assay, OBP2 (raw fluorescence reading) (SfurOBP2; ligand concentration 12 (unit not given), replicate column 2 of 3): 16003 | Fluorescence competitive binding assay, OBP2 (raw fluorescence reading) (SfurOBP2; ligand concentration 12 (unit not given), replicate column 3 of 3): 15331 | Fluorescence competitive binding assay, OBP2 (raw fluorescence reading) (SfurOBP2; ligand concentration 14 (unit not given), replicate column 1 of 3): 15808 | Fluorescence competitive binding assay, OBP2 (raw fluorescence reading) (SfurOBP2; ligand concentration 14 (unit not given), replicate column 2 of 3): 14578 | Fluorescence competitive binding assay, OBP2 (raw fluorescence reading) (SfurOBP2; ligand concentration 14 (unit not given), replicate column 3 of 3): 16066 | Fluorescence competitive binding assay, OBP2 (raw fluorescence reading) (SfurOBP2; ligand concentration 16 (unit not given), replicate column 1 of 3): 13829 | Fluorescence competitive binding assay, OBP2 (raw fluorescence reading) (SfurOBP2; ligand concentration 16 (unit not given), replicate column 2 of 3): 13659 | Fluorescence competitive binding assay, OBP2 (raw fluorescence reading) (SfurOBP2; ligand concentration 16 (unit not given), replicate column 3 of 3): 13740 | Fluorescence competitive binding assay, OBP2 (raw fluorescence reading) (SfurOBP2; ligand concentration 18 (unit not given), replicate column 1 of 3): 13696 | Fluorescence competitive binding assay, OBP2 (raw fluorescence reading) (SfurOBP2; ligand concentration 18 (unit not given), replicate column 2 of 3): 13929 | Fluorescence competitive binding assay, OBP2 (raw fluorescence reading) (SfurOBP2; ligand concentration 18 (unit not given), replicate column 3 of 3): 14161 | Fluorescence competitive binding assay, OBP2 (raw fluorescence reading) (SfurOBP2; ligand concentration 20 (unit not given), replicate column 1 of 3): 14205 | Fluorescence competitive binding assay, OBP2 (raw fluorescence reading) (SfurOBP2; ligand concentration 20 (unit not given), replicate column 2 of 3): 14645 | Fluorescence competitive binding assay, OBP2 (raw fluorescence reading) (SfurOBP2; ligand concentration 20 (unit not given), replicate column 3 of 3): 13761 | IC50 (SfurOBP1): > 20 µM | Fluorescence competitive binding assay, fluorescence intensity (SfurOBP1; ligand concentration 2 (μM)): 5064 and 4951 and 5158 | Fluorescence competitive binding assay, fluorescence intensity (SfurOBP1; ligand concentration 4 (μM)): 5979 and 6427 and 5531 | Fluorescence competitive binding assay, fluorescence intensity (SfurOBP1; ligand concentration 6 (μM)): 9023 and 8678 and 7700 | Fluorescence competitive binding assay, fluorescence intensity (SfurOBP1; ligand concentration 8 (μM)): 8709 and 6440 and 6910 | Fluorescence competitive binding assay, fluorescence intensity (SfurOBP1; ligand concentration 10 (μM)): 7708 and 6333 and 7083 | Fluorescence competitive binding assay, fluorescence intensity (SfurOBP1; ligand concentration 12 (μM)): 5895 and 6787 and 5523 | Fluorescence competitive binding assay, fluorescence intensity (SfurOBP1; ligand concentration 14 (μM)): 8915 and 6017 and 4981 | Fluorescence competitive binding assay, fluorescence intensity (SfurOBP1; ligand concentration 16 (μM)): 7008 and 5157 and 5392 | Fluorescence competitive binding assay, fluorescence intensity (SfurOBP1; ligand concentration 18 (μM)): 7131 and 8076 and 6232 | Fluorescence competitive binding assay, fluorescence intensity (SfurOBP1; ligand concentration 20 (μM)): 6422 and 6546 and 6873 | IC50 (SfurOBP3): > 20 µM | Fluorescence competitive binding assay, fluorescence intensity (SfurOBP3; ligand concentration 2): 65046 and 56813 and 65508 | Fluorescence competitive binding assay, fluorescence intensity (SfurOBP3; ligand concentration 4): 67380 and 59779 and 65465 | Fluorescence competitive binding assay, fluorescence intensity (SfurOBP3; ligand concentration 6): 60647 and 61139 and 65169 | Fluorescence competitive binding assay, fluorescence intensity (SfurOBP3; ligand concentration 8): 62761 and 59088 and 65223 | Fluorescence competitive binding assay, fluorescence intensity (SfurOBP3; ligand concentration 10): 58066 and 60267 and 58488 | Fluorescence competitive binding assay, fluorescence intensity (SfurOBP3; ligand concentration 12): 53979 and 46844 and 52174 | Fluorescence competitive binding assay, fluorescence intensity (SfurOBP3; ligand concentration 14): 52567 and 46884 and 49119 | Fluorescence competitive binding assay, fluorescence intensity (SfurOBP3; ligand concentration 16): 43090 and 45767 and 42573 | Fluorescence competitive binding assay, fluorescence intensity (SfurOBP3; ligand concentration 18): 48410 and 52387 and 52599 | Fluorescence competitive binding assay, fluorescence intensity (SfurOBP3; ligand concentration 20): 47608 and 41929 and 45047 | IC50 (SfurOBP11): > 20 µM | Fluorescence intensity, fluorescence competitive binding assay, OBP11 (SfurOBP11; ligand concentration 2, replicate 1): 27311 | Fluorescence intensity, fluorescence competitive binding assay, OBP11 (SfurOBP11; ligand concentration 2, replicate 2): 29257 | Fluorescence intensity, fluorescence competitive binding assay, OBP11 (SfurOBP11; ligand concentration 2, replicate 3): 28341 | Fluorescence intensity, fluorescence competitive binding assay, OBP11 (SfurOBP11; ligand concentration 4, replicate 1): 28195 | Fluorescence intensity, fluorescence competitive binding assay, OBP11 (SfurOBP11; ligand concentration 4, replicate 2): 27454 | Fluorescence intensity, fluorescence competitive binding assay, OBP11 (SfurOBP11; ligand concentration 4, replicate 3): 28935 | Fluorescence intensity, fluorescence competitive binding assay, OBP11 (SfurOBP11; ligand concentration 6, replicate 1): 25204 | Fluorescence intensity, fluorescence competitive binding assay, OBP11 (SfurOBP11; ligand concentration 6, replicate 2): 26496 | Fluorescence intensity, fluorescence competitive binding assay, OBP11 (SfurOBP11; ligand concentration 6, replicate 3): 27787 | Fluorescence intensity, fluorescence competitive binding assay, OBP11 (SfurOBP11; ligand concentration 8, replicate 1): 24731 | Fluorescence intensity, fluorescence competitive binding assay, OBP11 (SfurOBP11; ligand concentration 8, replicate 2): 24972 | Fluorescence intensity, fluorescence competitive binding assay, OBP11 (SfurOBP11; ligand concentration 8, replicate 3): 24489 | Fluorescence intensity, fluorescence competitive binding assay, OBP11 (SfurOBP11; ligand concentration 10, replicate 1): 24285 | Fluorescence intensity, fluorescence competitive binding assay, OBP11 (SfurOBP11; ligand concentration 10, replicate 2): 24217 | Fluorescence intensity, fluorescence competitive binding assay, OBP11 (SfurOBP11; ligand concentration 10, replicate 3): 24352 | Fluorescence intensity, fluorescence competitive binding assay, OBP11 (SfurOBP11; ligand concentration 12, replicate 1): 23537 | Fluorescence intensity, fluorescence competitive binding assay, OBP11 (SfurOBP11; ligand concentration 12, replicate 2): 23314 | Fluorescence intensity, fluorescence competitive binding assay, OBP11 (SfurOBP11; ligand concentration 12, replicate 3): 23760 | Fluorescence intensity, fluorescence competitive binding assay, OBP11 (SfurOBP11; ligand concentration 14, replicate 1): 19900 | Fluorescence intensity, fluorescence competitive binding assay, OBP11 (SfurOBP11; ligand concentration 14, replicate 2): 22587 | Fluorescence intensity, fluorescence competitive binding assay, OBP11 (SfurOBP11; ligand concentration 14, replicate 3): 21306 | Fluorescence intensity, fluorescence competitive binding assay, OBP11 (SfurOBP11; ligand concentration 16, replicate 1): 18401 | Fluorescence intensity, fluorescence competitive binding assay, OBP11 (SfurOBP11; ligand concentration 16, replicate 2): 18544 | Fluorescence intensity, fluorescence competitive binding assay, OBP11 (SfurOBP11; ligand concentration 16, replicate 3): 17724 | Fluorescence intensity, fluorescence competitive binding assay, OBP11 (SfurOBP11; ligand concentration 18, replicate 1): 22003 | Fluorescence intensity, fluorescence competitive binding assay, OBP11 (SfurOBP11; ligand concentration 18, replicate 2): 20975 | Fluorescence intensity, fluorescence competitive binding assay, OBP11 (SfurOBP11; ligand concentration 18, replicate 3): 22765 | Fluorescence intensity, fluorescence competitive binding assay, OBP11 (SfurOBP11; ligand concentration 20, replicate 1): 21640 | Fluorescence intensity, fluorescence competitive binding assay, OBP11 (SfurOBP11; ligand concentration 20, replicate 2): 22200 | Fluorescence intensity, fluorescence competitive binding assay, OBP11 (SfurOBP11; ligand concentration 20, replicate 3): 21920 | number of insects choosing hexane arm (S. furcifera adults): 10 | number of insects choosing volatilies arm (S. furcifera adults): 9 | number of insects failed (no choice) (S. furcifera adults): 20
